Here are results for 1 molecule from ChEMBL document CHEMBL1143877, “Xylose as a carrier for boron containing compounds” (2008).

For assay [1], the system named is T-24. Briefly: Inhibition of tumor growth in human T24 cells xenografted sc dosed SCIDnodCA mouse. The assay is classed as functional. On the set-up: scale not given: the % may be the effect or the level left.
Assay [2] relates to T-24. The assay is described as follows: Inhibition of tumor growth in human T24 cells xenografted orally dosed SCIDnodCA mouse. The assay is classed as functional. Set-up: scale not given: the % may be the effect or the level left.

Molecules are shown by their SMILES.

Take `Oc1ccc2cc(O[C@@H]3OC[C@@H](O)[C@H](O)[C@H]3O)ccc2c1`: the Activity with T-24 [1] is reported as 97%; in the assay with T-24 [2] it was 70%.
